Earlier results, collected in publication PMC8513935.

Key:
[1] = log P octanol/water from commercial databases, averaged (the ESI); conditions: Octanol (wet), 25 C
[2] = experimental, compiled by the authors from the literature (the ESI cites the sources)
[3] = derived by the authors as gas->solvent minus gas->water (a hypothetical dry solvent; the ESI), not a two-phase measurement

In the case of `CCCCCCCCCC`, the log K of transfer, water to solvent [1] is listed as 5.88 log10 K, the log K of transfer, gas to solvent ([2]; Butanone, 25 C) is listed as 4.42 log10 K and the log K of transfer, gas to solvent ([2]; Ethanol, 25 C) is listed as 3.92 log10 K. The log K of transfer, gas to solvent ([2]; Hexadecane, 25 C) was 4.68 log10 K, the log K of transfer, gas to solvent ([2]; Hexane, 25 C) was 5.02 log10 K and the log K of transfer, gas to solvent ([2]; Water, 25 C) was -2.32 log10 K. For the same compound, the log K of transfer, water to solvent ([3]; Butanone, 25 C) was 6.74 log10 K, the log K of transfer, water to solvent ([3]; Ethanol, 25 C) was 6.24 log10 K and the log K of transfer, water to solvent ([3]; Hexadecane, 25 C) was 7 log10 K. For the same compound, the log K of transfer, water to solvent ([3]; Hexane, 25 C) was 7.34 log10 K.

In the case of `C=CCCCCC`, the log K of transfer, water to solvent [1] is given as 3.99 log10 K, the log K of transfer, gas to solvent ([2]; Butyronitrile, 25 C) is given as 2.87 log10 K and the log K of transfer, gas to solvent ([2]; Hexadecane, 25 C) is given as 3.06 log10 K. For the same compound, the log K of transfer, gas to solvent ([2]; Pentan-1-ol, 25 C) was 2.88 log10 K, the log K of transfer, gas to solvent ([2]; Propionitrile, 25 C) was 2.78 log10 K and the log K of transfer, gas to solvent ([2]; Water, 25 C) was -1.22 log10 K. For the same compound, the log K of transfer, water to solvent ([3]; Butyronitrile, 25 C) was 4.09 log10 K, the log K of transfer, water to solvent ([3]; Hexadecane, 25 C) was 4.28 log10 K and the log K of transfer, water to solvent ([3]; Pentan-1-ol, 25 C) was 4.1 log10 K. The log K of transfer, water to solvent ([3]; Propionitrile, 25 C) was 4 log10 K.

In the case of `Cc1cc(C)c(C)cc1C`, the log K of transfer, water to solvent [1] is listed as 4.1 log10 K, the log K of transfer, gas to solvent ([2]; 2-Methylpropan-1-ol, 25 C) is listed as 4.77 log10 K and the log K of transfer, gas to solvent ([2]; 2-Methylpropan-2-ol, 25 C) is listed as 4.85 log10 K. For the same compound, the log K of transfer, gas to solvent ([2]; 3-Methylbutan-1-ol, 25 C) was 4.86 log10 K, the log K of transfer, gas to solvent ([2]; Butan-1-ol, 25 C) was 4.92 log10 K and the log K of transfer, gas to solvent ([2]; Butan-2-ol, 25 C) was 4.85 log10 K. The log K of transfer, gas to solvent ([2]; Decan-1-ol, 25 C) was 5.01 log10 K, the log K of transfer, gas to solvent ([2]; Di-n-butyl ether, 25 C) was 5.27 log10 K and the log K of transfer, gas to solvent ([2]; Diethyl Ether, 25 C) was 5.38 log10 K. For the same compound, the log K of transfer, gas to solvent ([2]; Ethanol, 25 C) was 4.72 log10 K, the log K of transfer, gas to solvent ([2]; Heptan-1-ol, 25 C) was 4.97 log10 K and the log K of transfer, gas to solvent ([2]; Hexadecane, 25 C) was 5.03 log10 K. For the same compound, the log K of transfer, gas to solvent ([2]; Hexan-1-ol, 25 C) was 4.95 log10 K, the log K of transfer, gas to solvent ([2]; Hexane, 25 C) was 5.31 log10 K and the log K of transfer, gas to solvent ([2]; Methanol, 25 C) was 4.52 log10 K. The log K of transfer, gas to solvent ([2]; Pentan-1-ol, 25 C) was 4.92 log10 K, the log K of transfer, gas to solvent ([2]; Propan-1-ol, 25 C) was 4.79 log10 K and the log K of transfer, gas to solvent ([2]; Propan-2-ol, 25 C) was 4.75 log10 K. For the same compound, the log K of transfer, gas to solvent ([2]; Water, 25 C) was 0.53 log10 K, the log K of transfer, water to solvent ([3]; 2-Methylpropan-1-ol, 25 C) was 4.24 log10 K and the log K of transfer, water to solvent ([3]; 2-Methylpropan-2-ol, 25 C) was 4.32 log10 K. The log K of transfer, water to solvent ([3]; 3-Methylbutan-1-ol, 25 C) was 4.33 log10 K, the log K of transfer, water to solvent ([3]; Butan-1-ol, 25 C) was 4.39 log10 K and the log K of transfer, water to solvent ([3]; Butan-2-ol, 25 C) was 4.32 log10 K. For the same compound, the log K of transfer, water to solvent ([3]; Decan-1-ol, 25 C) was 4.48 log10 K, the log K of transfer, water to solvent ([3]; Di-n-butyl ether, 25 C) was 4.74 log10 K and the log K of transfer, water to solvent ([3]; Diethyl Ether, 25 C) was 4.85 log10 K. The log K of transfer, water to solvent ([3]; Ethanol, 25 C) was 4.19 log10 K, the log K of transfer, water to solvent ([3]; Heptan-1-ol, 25 C) was 4.44 log10 K and the log K of transfer, water to solvent ([3]; Hexadecane, 25 C) was 4.5 log10 K. The log K of transfer, water to solvent ([3]; Hexan-1-ol, 25 C) was 4.42 log10 K, the log K of transfer, water to solvent ([3]; Hexane, 25 C) was 4.78 log10 K and the log K of transfer, water to solvent ([3]; Methanol, 25 C) was 3.99 log10 K. The log K of transfer, water to solvent ([3]; Pentan-1-ol, 25 C) was 4.39 log10 K, the log K of transfer, water to solvent ([3]; Propan-1-ol, 25 C) was 4.26 log10 K and the log K of transfer, water to solvent ([3]; Propan-2-ol, 25 C) was 4.22 log10 K.

In the case of `Oc1ccccc1`, the log K of transfer, water to solvent [1] is listed as 1.5 log10 K, the log K of transfer, gas to solvent ([2]; 1,2-Dichloroethane, 25 C) is listed as 5.46 log10 K and the log K of transfer, gas to solvent ([2]; Benzene, 25 C) is listed as 5.22 log10 K. For the same compound, the log K of transfer, gas to solvent ([2]; CCl4, 25 C) was 4.55 log10 K, the log K of transfer, gas to solvent ([2]; Chlorobenzene, 25 C) was 5.1 log10 K and the log K of transfer, gas to solvent ([2]; Chloroform, 25 C) was 5.17 log10 K. For the same compound, the log K of transfer, gas to solvent ([2]; Cyclohexane, 25 C) was 4.03 log10 K, the log K of transfer, gas to solvent ([2]; Dichloromethane, 25 C) was 5.49 log10 K and the log K of transfer, gas to solvent ([2]; Hexadecane, 25 C) was 3.76 log10 K. The log K of transfer, gas to solvent ([2]; Hexane, 25 C) was 3.67 log10 K, the log K of transfer, gas to solvent ([2]; Octan-1-ol, 25 C) was 5.68 log10 K and the log K of transfer, gas to solvent ([2]; Perfluoroalkane, 25 C) was 2.23 log10 K. For the same compound, the log K of transfer, gas to solvent ([2]; Toluene, 25 C) was 5.08 log10 K, the log K of transfer, gas to solvent ([2]; Water, 25 C) was 4.85 log10 K and the log K of transfer, water to solvent ([3]; 1,2-Dichloroethane, 25 C) was 0.61 log10 K. For the same compound, the log K of transfer, water to solvent ([3]; Benzene, 25 C) was 0.37 log10 K, the log K of transfer, water to solvent ([3]; CCl4, 25 C) was -0.3 log10 K and the log K of transfer, water to solvent ([3]; Chlorobenzene, 25 C) was 0.25 log10 K. The log K of transfer, water to solvent ([3]; Chloroform, 25 C) was 0.32 log10 K, the log K of transfer, water to solvent ([3]; Cyclohexane, 25 C) was -0.813 log10 K and the log K of transfer, water to solvent ([3]; Dichloromethane, 25 C) was 0.64 log10 K. The log K of transfer, water to solvent ([3]; Hexadecane, 25 C) was -1.08 log10 K, the log K of transfer, water to solvent ([3]; Hexane, 25 C) was -1.18 log10 K and the log K of transfer, water to solvent ([3]; Octan-1-ol(dry), 25 C) was 0.83 log10 K. The log K of transfer, water to solvent ([3]; Perfluoroalkane, 25 C) was -2.62 log10 K and the log K of transfer, water to solvent ([3]; Toluene, 25 C) was 0.23 log10 K.

For `O`, the log K of transfer, water to solvent [1] is listed as -1.38 log10 K, the log K of transfer, gas to solvent ([2]; Benzene, 25 C) is listed as 1.25 log10 K and the log K of transfer, gas to solvent ([2]; CCl4, 25 C) is listed as 0.64 log10 K. For the same compound, the log K of transfer, gas to solvent ([2]; Chloroform, 25 C) was 1.54 log10 K, the log K of transfer, gas to solvent ([2]; Cyclohexane, 25 C) was 0.29 log10 K and the log K of transfer, gas to solvent ([2]; Dichloromethane, 25 C) was 1.94 log10 K. The log K of transfer, gas to solvent ([2]; Ethanol, 25 C) was 3.72 log10 K, the log K of transfer, gas to solvent ([2]; Hexadecane, 25 C) was 0.245 log10 K and the log K of transfer, gas to solvent ([2]; Hexane, 25 C) was 0.54 log10 K. The log K of transfer, gas to solvent ([2]; Methanol, 25 C) was 4.07 log10 K, the log K of transfer, gas to solvent ([2]; Perfluoroalkane, 25 C) was 0.33 log10 K and the log K of transfer, gas to solvent ([2]; Propan-2-ol, 25 C) was 3.41 log10 K. The log K of transfer, gas to solvent ([2]; Propanone, 25 C) was 3.22 log10 K, the log K of transfer, gas to solvent ([2]; Tetrahydrofuran, 25 C) was 2.91 log10 K and the log K of transfer, gas to solvent ([2]; Toluene, 25 C) was 1.24 log10 K. For the same compound, the log K of transfer, gas to solvent ([2]; Water, 25 C) was 4.69 log10 K, the log K of transfer, water to solvent ([3]; Acetone, 25 C) was -1.47 log10 K and the log K of transfer, water to solvent ([3]; Benzene, 25 C) was -3.44 log10 K. The log K of transfer, water to solvent ([3]; CCl4, 25 C) was -4.05 log10 K, the log K of transfer, water to solvent ([3]; Chloroform, 25 C) was -3.15 log10 K and the log K of transfer, water to solvent ([3]; Cyclohexane, 25 C) was -4.4 log10 K. The log K of transfer, water to solvent ([3]; Dichloromethane, 25 C) was -2.75 log10 K, the log K of transfer, water to solvent ([3]; Ethanol, 25 C) was -0.97 log10 K and the log K of transfer, water to solvent ([3]; Hexadecane, 25 C) was -4.44 log10 K. For the same compound, the log K of transfer, water to solvent ([3]; Hexane, 25 C) was -4.15 log10 K, the log K of transfer, water to solvent ([3]; Methanol, 25 C) was -0.62 log10 K and the log K of transfer, water to solvent ([3]; Perfluoroalkane, 25 C) was -4.36 log10 K. The log K of transfer, water to solvent ([3]; Propan-2-ol, 25 C) was -1.28 log10 K, the log K of transfer, water to solvent ([3]; Tetrahydrofuran, 25 C) was -1.78 log10 K and the log K of transfer, water to solvent ([3]; Toluene, 25 C) was -3.45 log10 K.

In the case of `CC(C)SC(C)C`, the log K of transfer, water to solvent [1] is given as 2.52 log10 K, the log K of transfer, gas to solvent ([2]; Hexadecane, 25 C) is given as 3.54 log10 K and the log K of transfer, gas to solvent ([2]; Water, 25 C) is given as 0.89 log10 K. For the same compound, the log K of transfer, water to solvent ([3]; Hexadecane, 25 C) was 2.65 log10 K.

For `CCCCCCCCCCO`, the log K of transfer, water to solvent [1] is listed as 4.12 log10 K, the log K of transfer, gas to solvent ([2]; Decan-1-ol, 25 C) is listed as 7.03 log10 K and the log K of transfer, gas to solvent ([2]; Hexadecane, 25 C) is listed as 5.61 log10 K. For the same compound, the log K of transfer, gas to solvent ([2]; Hexane, 25 C) was 5.64 log10 K, the log K of transfer, gas to solvent ([2]; Propan-1-ol, 25 C) was 7.13 log10 K and the log K of transfer, gas to solvent ([2]; Propan-2-ol, 25 C) was 7.16 log10 K. For the same compound, the log K of transfer, gas to solvent ([2]; Water, 25 C) was 2.67 log10 K, the log K of transfer, water to solvent ([3]; Decan-1-ol, 25 C) was 4.36 log10 K and the log K of transfer, water to solvent ([3]; Hexadecane, 25 C) was 2.94 log10 K. The log K of transfer, water to solvent ([3]; Hexane, 25 C) was 2.97 log10 K, the log K of transfer, water to solvent ([3]; Propan-1-ol, 25 C) was 4.46 log10 K and the log K of transfer, water to solvent ([3]; Propan-2-ol, 25 C) was 4.49 log10 K.
